Assay results: patent US10035800B2 (AbbVie Inc., priority 2013, dated 2018)

Assays:
[1] = biological target: T1, BRD4 (BDII_E352-M457) (Homo sapiens, UniProt O60885); assay: TR-FRET bromodomain binding assay, second bromodomain of BRD4; settings: 30 nM probe
T1 construct: protocol; made in house
In short: (§1)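 Compound dilutions are mixed with His-tagged BRD4 bromodomain (8 nM), europium anti-His antibody (1 nM) and Alexa647 probe (BDI 100 nM; BDII 30 nM) in pH 6.0 buffer containing 2% DMSO. After equilibrating one hour at room temperature, TR-FRET is measured; percent inhibition is fitted to obtain IC50, from which Ki is calculated.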

[2] = tested on: breast cancer cell line MX-1; assay: MX-1 cell line proliferation assay; type: cell-based; settings: MX-1 cells, 3-day proliferation assay, Cell Titer Glo; read-out: Cellular proliferation: EC50
Method: MX-1 Cell Line Proliferation Assay
The impact of compounds of the Examples on cancer cell proliferation was determined using the breast cancer cell line MX-1 (ATCC) in a 3-day proliferation assay and the data are reported in Table 1. MX-1 cells were maintained in RPMI 1640 medium (Sigma) supplemented with 10% FBS at 37 C.° and an atmosphere of 5% CO2. For compound testing, MX-1 cells were plated in 96-well black bottom plates at a density of 5000 cells/well in 90 μL of culture media and incubated at 37° overnight to allow cell adhesion and spreading. Compound dilution series were prepared in DMSO via a 3-fold serial dilution from 3 mM to 0.1 μM. The DMSO dilution series were then diluted 1:100 in phosphate buffered saline, and 10 μL of the resulted solution were added to the appropriate wells of the MX-1 cell plate. The final compound concentrations in the wells were 3, 1, 0.3, 0.1, 0.03, 0.01, 0.003, 0.001, 0.0003, and 0.0001 μM or 1, 0.3, 0.1, 0.03, 0.01, 0.003, 0.001, 0.0003, 0.0001, and 0.00003 μM.
Luminescence readings from the Cell Titer Glo assay were normalized to the DMSO treated cells and analyzed using the GraphPad Prism software with sigmoidal curve fitting to obtain EC50s. The minimum significant ratio (MSR) was determined to evaluate assay reproducibility (Eastwood et al., (2006) J Biomol Screen, 11: 253-261). The overall MSR was determined to be 2.1 and a moving MSR (last six run MSR overtime) has been <2.

[3] = biological target: T2, BRD4 (BDI_K57-E168) (Homo sapiens, UniProt O60885); assay: TR-FRET bromodomain binding assay, first bromodomain of BRD4; settings: 100 nM probe
T2 construct: BD1: amino acids K57-E168; made in house
In short: as §1

[4] = TR-FRET assay protocol G (compound 0.92 μM-15 pM)
[5] = TR-FRET assay protocol E (compound 9.19 μM-150 pM)

| Molecule | Ki [1, 4] [nM] | EC50 [2] [nM] | Ki [3, 4] [nM] | Ki [1, 5] [nM] | Ki [3, 5] [nM] |
| --- | --- | --- | --- | --- | --- |
| Cn1cc2c3c(c[nH]c3c1=O)C(CN1Cc3ccccc3C1=O)N(c1ccc(F)cc1F)c1ccc(CS(C)(=O)=O)cc1-2 (stereo not drawn) [Example 220, 4-(2,4-difluorophenyl)-10-methyl-7-((methylsulfonyl)methyl)-3-((1-oxoisoindolin-2-yl)methyl)-3,4-dihydro-1H-1,4,10-triazadibenzo[cd,f]azulen-11(10H)-one] | 2.61 | 285 | 51.6 | – | – |
| CNCCCC1c2c[nH]c3c(=O)n(C)cc(c23)-c2cc(CS(C)(=O)=O)ccc2N1c1ccc(F)cc1F (stereo not drawn) [Example 174, 4-(2,4-difluorophenyl)-10-methyl-3-(3-(methylamino)propyl)-7-((methylsulfonyl)methyl)-3,4-dihydro-1H-1,4,10-triazadibenzo[cd,f]azulen-11(10H)-one] | 1.53 | 239 | 12.6 | – | – |
| COc1cc(OC)cc(C2c3c[nH]c4c(=O)n(C)cc(c34)-c3cc(CS(C)(=O)=O)ccc3N2c2ccc(F)cc2F)c1 (stereo not drawn) [Example 222, 4-(2,4-difluorophenyl)-3-(3,5-dimethoxyphenyl)-10-methyl-7-((methylsulfonyl)methyl)-3,4-dihydro-1H-1,4,10-triazadibenzo[cd,f]azulen-11(10H)-one] | 29.4 | 160 | 170 | – | – |
| Cn1cc2c3c(c[nH]c3c1=O)C(CN1C(=O)c3ccccc3C1=O)N(c1ccc(F)cc1F)c1ccc(CS(C)(=O)=O)cc1-2 [Example 204, (S)-2-((4-(2,4-difluorophenyl)-10-methyl-7-((methylsulfonyl)methyl)-11-oxo-3,4,10,11-tetrahydro-1H-1,4,10-triazadibenzo[cd,f]azulen-3-yl)methyl)isoindoline-1,3-dione] | 1.22 | > 1000 | 46.1 | – | – |
| Cn1cc2c3c(c[nH]c3c1=O)CN(CC(C)(C)CN1CCCC1)c1ccc(CS(C)(=O)=O)cc1-2 [Example 178] | 4.38 | 123 | 4.36 | – | – |
| Cn1cc2c3c(c[nH]c3c1=O)C(c1ccccc1)N(c1ccc(F)cc1F)c1ccc(CS(C)(=O)=O)cc1-2 (stereo not drawn) [Example 214, 4-(2,4-difluorophenyl)-10-methyl-7-((methylsulfonyl)methyl)-3-phenyl-3,4-dihydro-1H-1,4,10-triazadibenzo[cd,f]azulen-11(10H)-one] | 3.25 | 431 | 40.8 | – | – |
| CN(C)C(=O)c1cc(CS(C)(=O)=O)cc2c1N(c1ccc(F)cc1F)Cc1c[nH]c3c(=O)n(C)cc-2c13 [Example 242, 4-(2,4-difluorophenyl)-N,N,10-trimethyl-7-((methylsulfonyl)methyl)-11-oxo-3,4,10,11-tetrahydro-1H-1,4,10-triazadibenzo[cd,f]azulene-5-carboxamide] | 3.78 | > 1000 | 12.6 | – | – |
| 10-methyl-7-((methylsulfonyl)methyl)-4-(pyrimidin-4-yl)-3,4-dihydro-1H-1,4,10-triazadibenzo[cd,f]azulen-11(10H)-one [Example 259] | 3.05 | 19 | 3.4 | – | – |
| Cn1cc2c3c(c[nH]c3c1=O)C(CCc1ccccc1)Nc1ccc(CS(C)(=O)=O)cc1-2 (stereo not drawn) [Example 18, 10-methyl-7-((methylsulfonyl)methyl)-3-phenethyl-3,4-dihydro-1H-1,4,10-triazadibenzo[cd,f]azulen-11(10H)-one] | – | 343 | – | 24.1 | 145 |
| Cn1cc2c3c(c[nH]c3c1=O)C(CCC(=O)N1CCOCC1)N(c1ccc(F)cc1F)c1ccc(CS(C)(=O)=O)cc1-2 (stereo not drawn) [Example 120, 4-(2,4-difluorophenyl)-10-methyl-7-((methylsulfonyl)methyl)-3-(3-morpholino-3-oxopropyl)-3,4-dihydro-1H-1,4,10-triazadibenzo[cd,f]azulen-11(10H)-one] | 1.59 | > 1000 | 9.28 | – | – |

More lines, now with the values ahead:

| Ki [1, 4] [nM] | EC50 [2] [nM] | Ki [3, 4] [nM] | Ki [1, 5] [nM] | Ki [3, 5] [nM] | Molecule |
| --- | --- | --- | --- | --- | --- |
| 21.4 | 41.6 | 32.1 | – | – | CC(C)CNC(=O)C1c2c[nH]c3c(=O)n(C)cc(c23)-c2cc(CS(C)(=O)=O)ccc2N1c1ccc(F)cc1F (stereo not drawn) [Example 161, 4-(2,4-difluorophenyl)-N-isobutyl-10-methyl-7-((methylsulfonyl)methyl)-11-oxo-3,4,10,11-tetrahydro-1H-1,4,10-triazadibenzo[cd,f]azulene-3-carboxamide] |
| 1.38 | 80.6 | 55.1 | – | – | Cn1cc2c3c(c[nH]c3c1=O)C(CCCOc1ccccc1)N(c1ccc(F)cc1F)c1ccc(CS(C)(=O)=O)cc1-2 [Example 145, (R)-4-(2,4-difluorophenyl)-10-methyl-7-((methylsulfonyl)methyl)-3-(3-phenoxypropyl)-3,4-dihydro-1H-1,4,10-triazadibenzo[cd,f]azulen-11(10H)-one] |
| 1.88 | 131 | 7.41 | – | – | Cn1cc2c3c(c[nH]c3c1=O)CN(C(=O)Nc1c(F)cccc1F)c1ccc(CS(C)(=O)=O)cc1-2 [Example 70, N-(2,6-difluorophenyl)-10-methyl-7-((methylsulfonyl)methyl)-11-oxo-10,11-dihydro-1H-1,4,10-triazadibenzo[cd,f]azulene-4(3H)-carboxamide] |
| 25.2 | 57.6 | 7.07 | – | – | Cn1cc2c3c(c[nH]c3c1=O)CN(C1CCC(NC(=O)OC(C)(C)C)CC1)c1ccc(S(C)(=O)=O)cc1-2 (stereo not drawn) [Example 170, tert-butyl ((trans)-4-(10-methyl-7-(methylsulfonyl)-11-oxo-10,11-dihydro-1H-1,4,10-triazadibenzo[cd,f]azulen-4(3H)-yl)cyclohexyl)carbamate] |
| 1.76 | 51.5 | 3.07 | – | – | CNC(=O)c1cc(CS(C)(=O)=O)cc2c1N(c1ccc(F)cc1F)Cc1c[nH]c3c(=O)n(C)cc-2c13 [Example 241, 4-(2,4-difluorophenyl)-N,10-dimethyl-7-((methylsulfonyl)methyl)-11-oxo-3,4,10,11-tetrahydro-1H-1,4,10-triazadibenzo[cd,f]azulene-5-carboxamide] |
| 1.93 | 85.9 | 3.14 | – | – | Cn1cc2c3c(c[nH]c3c1=O)CN(c1ccc(F)cc1F)c1c(C(N)=O)cc(CS(C)(=O)=O)cc1-2 [Example 240, 4-(2,4-difluorophenyl)-10-methyl-7-((methylsulfonyl)methyl)-11-oxo-3,4,10,11-tetrahydro-1H-1,4,10-triazadibenzo[cd,f]azulene-5-carboxamide] |
| 2.22 | 84.9 | 24.5 | – | – | Cn1cc2c3c(c[nH]c3c1=O)C(C1CCOCC1)N(c1ccc(F)cc1F)c1ccc(CS(C)(=O)=O)cc1-2 (stereo not drawn) [Example 228, 4-(2,4-difluorophenyl)-10-methyl-7-((methylsulfonyl)methyl)-3-(tetrahydro-2H-pyran-4-yl)-3,4-dihydro-1H-1,4,10-triazadibenzo[cd,f]azulen-11(10H)-one] |
| 5.42 | 149 | 39 | – | – | Cn1cc2c3c(c[nH]c3c1=O)C(c1cccc3cccnc13)N(c1ccc(F)cc1F)c1ccc(CS(C)(=O)=O)cc1-2 (stereo not drawn) [Example 231, 4-(2,4-difluorophenyl)-10-methyl-7-((methylsulfonyl)methyl)-3-(quinolin-8-yl)-3,4-dihydro-1H-1,4,10-triazadibenzo[cd,f]azulen-11(10H)-one] |
| 1.91 | 19.2 | 5.89 | – | – | CC(C)CC(=O)N1Cc2c[nH]c3c(=O)n(C)cc(c23)-c2cc(CS(C)(=O)=O)ccc21 [Example 106, 10-methyl-4-(3-methylbutanoyl)-7-((methylsulfonyl)methyl)-3,4-dihydro-1H-1,4,10-triazadibenzo[cd,f]azulen-11(10H)-one] |
| 1.64 | 85.2 | 3.91 | – | – | 4-(4-chlorophenyl)-10-methyl-2-(1-methyl-1H-pyrazol-4-yl)-7-(methylsulfonyl)-3,4-dihydro-1H-1,4,10-triazadibenzo[cd,f]azulen-11(10H)-one [Example 271] |
| 12.3 | 33 | 31.6 | – | – | COc1cccc(OC)c1C1c2c[nH]c3c(=O)n(C)cc(c23)-c2cc(CS(C)(=O)=O)ccc2N1c1ccc(F)cc1F (racemic) [Example 221, 4-(2,4-difluorophenyl)-3-(2,6-dimethoxyphenyl)-10-methyl-7-((methylsulfonyl)methyl)-3,4-dihydro-1H-1,4,10-triazadibenzo[cd,f]azulen-11(10H)-one] |
